Results on seven compounds are retold here after publication PMC9230645, “Discovery of GSK3β Inhibitors through In Silico Prediction-and-Experiment Cycling Strategy, and Biological Evaluation” (Molecules, 2022).

In general, inhibition refers to the share of the control response that was lost under treatment. A word on the IC50: it is the midpoint of a concentration-inhibition curve.

Assay [1] addresses T1, GSK3β (Homo sapiens, UniProt P49841).
T1 construct: purchased Carna Biosciences
Kind of assay: GSK3β kinase assay (TR-FRET / Lance HTRF). It is filed as biochemical. The settings on record: for inhibition at 0.5 µM: 0.5 μM compound; for inhibition at 5 µM: 5 μM compound; for IC50: Table 1, means ± SD (n = 2). In general terms: In TR-FRET formats the signal depends on donor and acceptor labels being close together.
Protocol: The GSK3β inhibitory activities of the virtually-selected 3000 compounds were screened by a Lance HTRF assay. At a concentration of 10 μM, the single-point screening signal-to-noise (S/N) ratio, Z factor, and Z’ factor of the assay was 7.3, 0.48 and 0.61, respectively.

The target of assay [2] is T1, GSK3β. The experiment in a line: Five-by-five-concentration kinetic analysis of GSK3β inhibition versus ATP (Lineweaver–Burk). It counts as biochemical.
For assay [3], the target named is T1, GSK3β. Kind of assay: Reversibility assay (dilution method). The following applies: pre-incubated with 1 µM for 30 min, then diluted. It is filed as biochemical. As for the experimental part:
Figure 3 In vitro assay. […] (b) Competitive inhibition by cpd1 and SB216873. Compounds were tested using 4-point 2-fold serial dilution, starting from 1 µM or 0.25 µM at 5 different concentration of ATP (200, 100, 50, 33.3, and 25 µM). (c) Reversibility test.
The in vitro enzyme TR-FRET (time-resolved fluorescence energy transfer) assays were performed in 384-well white plates (Greiner) at room temperature (25 °C) using an HTS system from Biomek FX (Beckman Coulter) and a Stella robot. The assay was performed in a final volume of 10 µL in a kinase buffer of 50 mM HEPES, pH 7.5, 1 mM EGTA, 10 mM MgCl2, 2 mM DTT, and 0.01% Tween-20. The 3000 virtually-selected compounds in the 5 mM DMSO stock were diluted into desired concentrations with kinase buffer. A total of 5 µL of GSK3β (Carna Biosciences, 0.5 ng/well) and 2.5 µL of compounds were added to the assay plates and, then, 2.5 µL of the ULight-GS Peptide (Ser641/pSer657, […](pS)ED, #TRF0131 PerkinElmer, 50 nM final concentration)/ATP mixture were added. […] After incubation for 1 h, the fluorescence signal was read in excitation at 320 nm with an emission at 665 nm with the Envision Multilabel Plate Reader (PerkinElmer). Experimental data from dose–response curves were analyzed by nonlinear regression analysis with GraphPad Prism, version 7.00 for Windows, and the IC50 values were obtained. […]

A further assay deals with Wnt/β-catenin signaling. Kind of assay: HEK293 TOP flash reporter assay. It counts as cell-based. The following applies: 5 µM, HEK293 TOP flash reporter cells, 18 h. As for the experimental part: The pharmacologic inhibition of GSK3β’s activity can lead to β-catenin stabilization and subsequently activate Wnt/β-catenin signaling. To measure the inhibitory activities of the compounds selected in GSK3β enzyme-based high-throughput screening, these were treated in HEK293 TOP flash reporter cells at various concentrations.
The HEK293 reporter cells (HEK293 cells containing the chromosomally incorporated TOPflash gene) were provided by KY Choi (Yonsei University, Seoul, Korea). The HEK293 reporter cells were cultured in DMEM (Gibco) supplemented with 10% FBS (Gibco). To test the activates of GSK3β inhibition for hit compounds, HEK293 reporter cells were seeded into 96-well black polystyrene plates (Greiner Bio-One, Kremsmünster, Austria) at 1.5 × 10^4 cells per well and cultured for 24 h. Hit compounds, a positive control (CHIR99021, SelleckChem, Houston, TX, USA) or control (DMSO) were added to the wells at the indicated concentrations. After 18 h, the plates were assayed for firefly luciferase activity; relative reporter activity was determined after the data were normalized relative to the value of the WST-1 (Takara Korea Biomedical Inc., Seoul, Korea) cell viability analysis. Statistical analyses were performed using Prism 8 (GraphPad Software). […]
Background: A reporter such as luciferase makes a cellular process visible.

Structures are written as SMILES.

T1 sequence (P49841 whole entry): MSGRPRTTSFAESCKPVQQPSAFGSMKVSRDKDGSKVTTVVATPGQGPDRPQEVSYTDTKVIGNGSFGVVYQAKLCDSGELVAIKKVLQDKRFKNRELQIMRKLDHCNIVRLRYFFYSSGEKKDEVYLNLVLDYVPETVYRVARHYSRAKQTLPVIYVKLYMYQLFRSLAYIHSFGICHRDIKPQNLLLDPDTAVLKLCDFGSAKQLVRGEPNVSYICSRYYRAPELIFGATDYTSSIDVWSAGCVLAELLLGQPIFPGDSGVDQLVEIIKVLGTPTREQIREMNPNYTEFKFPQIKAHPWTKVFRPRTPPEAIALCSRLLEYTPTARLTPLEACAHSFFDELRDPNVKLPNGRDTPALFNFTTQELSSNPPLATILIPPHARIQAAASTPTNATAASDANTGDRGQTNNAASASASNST

`Cc1nc[nH]c1CSCCNc1cc(-c2ccccc2)nc2ccnn12` [Compound 2]: at GSK3β [1], the inhibition at 0.5 µM came out at 78%, testing at 5 µM gave an inhibition of 100% and half-maximal inhibition (IC50) required 0.211 ± 0.055 µM.
For `Cn1cc(C2=C(c3ccc(Cl)cc3Cl)C(=O)NC2=O)c2ccccc21` [8 (SB216763), SB216763, reference compound], on GSK3β [1], testing at 0.5 µM gave an inhibition of 61% and testing at 5 µM gave an inhibition of 100%.
On GSK3β [1], `CCc1nccn1CCCNc1cc(-c2ccc(F)cc2)nc2ccnn12` [Compound 1, N-(3-(2-ethyl-1H-imidazol-1-yl)propyl)-5-(4-fluorophenyl)pyrazolo[1,5-a]pyrimidin-7-amine] came in with an inhibition at 0.5 µM of 100%, an inhibition at 5 µM of 100% and an IC50 of 0.037 ± 0.006 µM. In addition, on GSK3β [2] (5 ATP concentrations (200, 100, 50, 33.3, 25 µM), read-out: slope inhibition constant K is), the Ki was found to be 0.0418 µM. Further, the “inhibition pattern of GSK3β-catalyzed phosphorylation” value against GSK3β [2] (versus ATP) was “competitive”. On GSK3β [3], the enzyme-binding reversibility entry is “reversible”. Also, the “TOP flash activity induction” value with Wnt/β-catenin signaling was 3.5 fold.
Turning to `Cc1cc(NCCCNc2cccnc2)n2nccc2n1` [Compound 7], at GSK3β [1], the inhibition at 0.5 µM was 30%, the inhibition at 5 µM is 90% and the IC50 is 1.03 ± 0.066 µM.
Consider `Cc1c(CNc2cc(-c3ccccc3F)nc3ccnn23)cnn1C` [Compound 4], for which, at GSK3β [1], at 0.5 µM the inhibition was 57%, testing at 5 µM gave an inhibition of 96% and the IC50 amounted to 0.347 ± 0.056 µM.
On to `CCc1cc(NCc2scnc2-c2ccccc2)n2nccc2n1` [Compound 6], for which, on GSK3β [1], the inhibition at 0.5 µM was 45%; the inhibition at 5 µM stood at 91%; the midpoint of inhibition, the IC50, lay at 0.73 ± 0.113 µM.
On GSK3β [1], `COCc1cc(NCc2nnn[nH]2)n2nccc2n1` [Compound 5] registered an inhibition at 0.5 µM of 38%, an inhibition at 5 µM of 95% and an IC50 of 0.701 ± 0.118 µM.
